Values after ≈ are worked out from the molar mass of the structure shown.
What was measured:
[1] = target: T1, soybean lipoxygenase (LOX) (Glycine max, UniProt P08170); assay: In vitro soybean lipoxygenase (LOX) inhibition; type: biochemical; conditions: for IC50: sodium linoleate 0.1 mM, read-out: LOX inhibition (IC50 μM) ± SD
T1 construct: purchased Sigma-Aldrich
T1 sequence (P08170 1-839): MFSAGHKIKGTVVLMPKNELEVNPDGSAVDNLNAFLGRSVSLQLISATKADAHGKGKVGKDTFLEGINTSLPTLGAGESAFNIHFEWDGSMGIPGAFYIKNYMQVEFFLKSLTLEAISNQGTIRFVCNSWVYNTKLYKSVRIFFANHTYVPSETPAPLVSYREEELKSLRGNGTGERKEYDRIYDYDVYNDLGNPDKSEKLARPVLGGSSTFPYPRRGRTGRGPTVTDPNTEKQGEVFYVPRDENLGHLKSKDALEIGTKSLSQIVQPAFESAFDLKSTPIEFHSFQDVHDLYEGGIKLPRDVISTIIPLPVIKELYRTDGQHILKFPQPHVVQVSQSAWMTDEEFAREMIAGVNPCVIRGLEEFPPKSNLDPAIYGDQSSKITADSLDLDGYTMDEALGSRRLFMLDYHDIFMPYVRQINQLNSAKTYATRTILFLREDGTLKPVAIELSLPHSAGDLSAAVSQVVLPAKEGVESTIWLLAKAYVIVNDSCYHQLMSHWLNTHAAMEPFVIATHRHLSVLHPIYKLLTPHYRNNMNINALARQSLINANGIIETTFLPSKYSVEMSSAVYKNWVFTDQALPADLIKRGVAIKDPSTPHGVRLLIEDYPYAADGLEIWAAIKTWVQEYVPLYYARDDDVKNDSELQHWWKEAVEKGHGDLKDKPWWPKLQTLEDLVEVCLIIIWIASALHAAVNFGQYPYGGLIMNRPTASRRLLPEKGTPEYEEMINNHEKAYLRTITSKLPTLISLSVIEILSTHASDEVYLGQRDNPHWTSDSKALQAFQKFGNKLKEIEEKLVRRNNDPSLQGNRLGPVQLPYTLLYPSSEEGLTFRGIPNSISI
Procedure: In vitro LOX inhibition assay was accomplished as described previously. Test compounds (stock solutions 10 mM in DMSO) were incubated at room temperature with sodium linoleate (0.1 mM) and 0.2 ml of LOX solution (0.1 mg in 10 ml saline). Conversion of sodium linoleate to 13-hydroperoxylinoleic acid was measured at 234 nm and compared to the reference inhibitor. Several concentrations were used for IC50 determination.

[2] = system: Escherichia coli ATCC 8739; assay: MIC determination (broth micro-dilution); type: cell-based; conditions: ATCC8739
Procedure: (§1) Before analysis, compounds 5a–f were dissolved in 96% ethanol in a concentration of 2 mg/ml as stock solutions. Inoculums were prepared with fresh cultures of microbial strains, cultured on tryptic-soy agar or Sabouraud 2% (m/v) dextrose agar for 18 h (48–72 h for fungi) at 30 °C with physiological saline containing approximately […]. Inoculum density (0.5 McFarland units) was adjusted with a bio Mériex (France) densitometer. Minimum inhibitory concentration (MIC) was determined by the twofold micro-dilution method in Mu¨ller–Hinton broth for bacterial strains and RPMI 1640 + 2% m/v dextrose for fungi according to the EUCAST recommendations in a sterile 96-well flat-bottom plastic tissue culture plate. MIC was determined using a linear regression curve after incubation of compounds and reading the optical density at 570 nm using an iEMS microplate reader. […] All tests were performed in triplicate and expressed as the mean.

[3] = system: Candida kefyr ATCC 2512; assay: MIC determination (broth micro-dilution); type: cell-based; conditions: Kluyveromyces marxianus, ATCC2512
Procedure: as §1

[4] = system: Candida parapsylosis ATCC 22019; assay: MIC determination (broth micro-dilution); type: cell-based; conditions: ATCC22019
Procedure: as §1

[5] = system: Kocuria rhizophila ATCC 9341; assay: MIC determination (broth micro-dilution); type: cell-based; conditions: ATCC9341
Procedure: as §1

[6] = system: Candida albicans ATCC 90028; assay: MIC determination (broth micro-dilution); type: cell-based; conditions: ATCC90028
Procedure: as §1

[7] = system: Issatchenkia orientalis Kudrjanzev ATCC 6258; assay: MIC determination (broth micro-dilution); type: cell-based; conditions: Pichia kudriavzevii, ATCC6258
Procedure: as §1

[8] = system: Aspergillus niger ATCC 16404; assay: MIC determination (broth micro-dilution); type: cell-based; conditions: ATCC16404
Procedure: as §1

[9] = system: Staphylococcus aureus ATCC 6538; assay: MIC determination (broth micro-dilution); type: cell-based; conditions: ATCC6538
Procedure: as §1

[10] = system: Staphylococcus aureus ATCC 25923; assay: MIC determination (broth micro-dilution); type: cell-based; conditions: ATCC25923
Procedure: as §1

[11] = system: Candida albicans ATCC 10231; assay: MIC determination (broth micro-dilution); type: cell-based; conditions: ATCC10231
Procedure: as §1

[12] = system: Staphylococcus aureus ATCC 25213; assay: MIC determination (broth micro-dilution); type: cell-based; conditions: ATCC25213
Procedure: as §1

[13] = system: Bacillus subtilis ATCC 6633; assay: MIC determination (broth micro-dilution); type: cell-based; conditions: ATCC6633
Procedure: as §1

[14] = system: Pseudomonas aeruginosa ATCC 27853; assay: MIC determination (broth micro-dilution); type: cell-based; conditions: ATCC27853
Procedure: as §1

[15] = system: Bacillus cereus ATCC 11778; assay: MIC determination (broth micro-dilution); type: cell-based; conditions: ATCC11778
Procedure: as §1

[16] = system: Escherichia coli ATCC 10536; assay: MIC determination (broth micro-dilution); type: cell-based; conditions: ATCC10536
Procedure: as §1

[17] = system: Burkholderia caepacia ATCC 25416; assay: MIC determination (broth micro-dilution); type: cell-based; conditions: ATCC25416
Procedure: as §1

[18] = system: Pseudomonas aeruginosa ATCC 9027; assay: MIC determination (broth micro-dilution); type: cell-based; conditions: ATCC9027
Procedure: as §1

[19] = system: Enterococcus faecalis ATCC 29212; assay: MIC determination (broth micro-dilution); type: cell-based; conditions: ATCC29212
Procedure: as §1

[20] = system: Candida krusei ATCC 14243; assay: MIC determination (broth micro-dilution); type: cell-based; conditions: Pichia kudriavzevii, ATCC14243
Procedure: as §1

[21] = system: Candida tropicalis ATCC 750; assay: MIC determination (broth micro-dilution); type: cell-based; conditions: ATCC750
Procedure: as §1

[22] = system: Enterococcus hyrae ATCC 8043; assay: MIC determination (broth micro-dilution); type: cell-based; conditions: ATCC8043
Procedure: as §1

SMILES | MIC [2] | MIC [3] | MIC [4] | MIC [5] | MIC [6] | MIC [7] | MIC [8] | MIC [9] | MIC [10] | MIC [11] | MIC [12] | MIC [13] | MIC [14] | MIC [15] | MIC [16] | MIC [17] | MIC [18] | MIC [19] | MIC [20] | MIC [21] | other results
COc1cc(NC(C)CCCN)c2ncccc2c1 (stereo not shown) [PQ, 8-[(4-amino-1-methylbutyl)amino]-6-methoxyquinoline, reference compound] | 40 µg/mL (≈ 154 µM) | 40 µg/mL (≈ 154 µM) | 25 µg/mL (≈ 96.4 µM) | 50 µg/mL (≈ 193 µM) | > 100 µg/mL | > 100 µg/mL | > 100 µg/mL | 50 µg/mL (≈ 193 µM) | 45 µg/mL (≈ 174 µM) | 90 µg/mL (≈ 347 µM) | 70 µg/mL (≈ 270 µM) | 80 µg/mL (≈ 308 µM) | 65 µg/mL (≈ 251 µM) | 70 µg/mL (≈ 270 µM) | 65 µg/mL (≈ 251 µM) | 80 µg/mL (≈ 308 µM) | 70 µg/mL (≈ 270 µM) | > 100 µg/mL | > 100 µg/mL | > 100 µg/mL | MIC [22]: > 100 µg/mL
COc1cc(NC(C)CCCNC(=O)NC(C(=O)NC(c2ccccc2)c2ccc(Cl)cc2)c2ccc(Cl)cc2)c2ncccc2c1 (stereo not shown) [Compound 5e, 2–(4-chlorophenyl)-N-[(4-chlorophenyl)(phenyl)methyl]-2-[({4-[(6-methoxyquinolin-8-yl)amino]pentyl}carbamoyl)amino]acetamide] | 60 µg/mL (≈ 89.5 µM) | > 100 µg/mL | > 100 µg/mL | > 100 µg/mL | > 100 µg/mL | > 100 µg/mL | > 100 µg/mL | > 100 µg/mL | > 100 µg/mL | > 100 µg/mL | > 100 µg/mL | > 100 µg/mL | > 100 µg/mL | > 100 µg/mL | 45 µg/mL (≈ 67.1 µM) | > 100 µg/mL | > 100 µg/mL | > 100 µg/mL | > 100 µg/mL | > 100 µg/mL | IC50 [1]: 56 ± 2.3 µM; MIC [22]: > 100 µg/mL

More lines, main results first:

MIC [2] | MIC [3] | MIC [4] | MIC [5] | MIC [6] | MIC [7] | MIC [8] | MIC [9] | MIC [10] | MIC [11] | MIC [12] | MIC [13] | MIC [14] | MIC [15] | MIC [16] | MIC [17] | MIC [18] | MIC [19] | MIC [20] | MIC [21] | SMILES | other results
> 100 µg/mL | > 100 µg/mL | > 100 µg/mL | 25 µg/mL (≈ 43 µM) | > 100 µg/mL | > 100 µg/mL | > 100 µg/mL | 12.5 µg/mL (≈ 21.5 µM) | 15 µg/mL (≈ 25.8 µM) | > 100 µg/mL | 6.5 µg/mL (≈ 11.2 µM) | 50 µg/mL (≈ 85.9 µM) | 25 µg/mL (≈ 43 µM) | 70 µg/mL (≈ 120 µM) | > 100 µg/mL | 65 µg/mL (≈ 112 µM) | 60 µg/mL (≈ 103 µM) | > 100 µg/mL | > 100 µg/mL | > 100 µg/mL | COc1cc(NC(C)CCCNC(=O)NC(CC(C)C)C(=O)NC(c2ccccc2)c2ccccc2)c2ncccc2c1 (stereo not shown) [Compound 5a, N-(diphenylmethyl)-2-[({4-[(6-methoxyquinolin-8-yl)amino]pentyl}carbamoyl)amino]-4-methylpentanamide] | LOX inhibition, per cent ([1]; 100 μΜ (footnotes a, c)): 40.0 ± 1.0^a^,^c per cent; MIC [22]: > 100 µg/mL
60 µg/mL (≈ 94.3 µM) | > 100 µg/mL | > 100 µg/mL | > 100 µg/mL | > 100 µg/mL | > 100 µg/mL | > 100 µg/mL | > 100 µg/mL | > 100 µg/mL | > 100 µg/mL | > 100 µg/mL | > 100 µg/mL | 25 µg/mL (≈ 39.3 µM) | > 100 µg/mL | 60 µg/mL (≈ 94.3 µM) | 70 µg/mL (≈ 110 µM) | 50 µg/mL (≈ 78.6 µM) | > 100 µg/mL | > 100 µg/mL | > 100 µg/mL | COc1cc(NC(C)CCCNC(=O)NC(C(=O)NC(c2ccccc2)c2ccc(Cl)cc2)c2ccccc2)c2ncccc2c1 (stereo not shown) [Compound 5c, N-[(4-chlorophenyl)(phenyl)methyl]-2-[({4-[(6-methoxyquinolin-8-yl)amino]pentyl}carbamoyl)amino]-2-phenylacetamide] | IC50 [1]: 40 ± 1.5 µM; MIC [22]: > 100 µg/mL
> 100 µg/mL | > 100 µg/mL | > 100 µg/mL | > 100 µg/mL | > 100 µg/mL | > 100 µg/mL | > 100 µg/mL | > 100 µg/mL | > 100 µg/mL | > 100 µg/mL | > 100 µg/mL | > 100 µg/mL | > 100 µg/mL | > 100 µg/mL | > 100 µg/mL | > 100 µg/mL | > 100 µg/mL | > 100 µg/mL | > 100 µg/mL | > 100 µg/mL | COc1ccc(C(=NNC(=O)C(NC(=O)NCCCC(C)Nc2cc(OC)cc3cccnc23)c2ccc(Cl)cc2)c2ccccc2)cc1 (stereo not shown) [Compound 5f, 3-[(4-chlorophenyl)({N'-[(4-methoxyphenyl)(phenyl)methylidene]hydrazinecarbonyl})methyl]-1-{4-[(6-methoxyquinolin-8-yl)amino]pentyl}urea] | IC50 [1]: 67.5 ± 1.1 µM; MIC [22]: > 100 µg/mL

Source: PMC6021035, “Insights into biological activity of ureidoamides with primaquine and amino acid moieties” (Journal of Enzyme Inhibition and Medicinal Chemistry, 2018)
